Experimental data from patent US9193722B2, “Tri-cyclic pyrazolopyridine kinase inhibitors” (Vertex Pharmaceuticals Incorporated, priority 2008, dated 2015).

Legend:
Format in all cases: biochemical
PKC delta kinase = PKC delta kinase (Homo sapiens, UniProt Q05655); experiment: PKC delta kinase inhibition, coupled-enzyme (NADH absorbance) assay, Ki; conditions: 150 μM ATP, 46 nM PKC delta kinase, 30° C.; read-out: Ki PKC delta
Procedure, shortened: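 Enzyme and compound pre-equilibrated 10 min at 30° C before adding ATP to 150 μM final. Buffer: HEPES pH 7.5 (100 mM), 10 mM MgCl2, 25 mM NaCl, 0.1 mM EDTA, 0.01% Brij.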

PKC alpha kinase = PKC alpha kinase (Homo sapiens, UniProt P17252); experiment: PKC alpha kinase inhibition, coupled-enzyme (NADH absorbance) assay, Ki; conditions: 130 μM ATP, 4.5 nM PKC alpha kinase, 30° C.
Procedure, shortened: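 Ki derived by non-linear regression of initial rates from a coupled assay tracking NADH absorbance at 340 nm over 15 min at 30 °C. ATP was 130 μM final after a 10 min compound–enzyme preincubation in HEPES pH 7.5 buffer with MgCl2, CaCl2, NaCl, EDTA and Brij.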

PKC theta kinase = PKC theta kinase (Homo sapiens, UniProt Q04759); experiment: PKC theta kinase inhibition, coupled-enzyme (NADH absorbance) assay, Ki; conditions: 240 μM ATP, 18 nM PKC theta kinase, 30° C.
Procedure, shortened: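 Enzyme and compound equilibrated 10 min at 30 °C before reaction in HEPES pH 7.5 buffer with MgCl2, NaCl, EDTA and Brij. Activity tracked as NADH loss at 340 nm through a coupled system. Initial-rate data fitted by non-linear regression to give Ki.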

Sequence of PKC delta kinase (Q05655 whole entry): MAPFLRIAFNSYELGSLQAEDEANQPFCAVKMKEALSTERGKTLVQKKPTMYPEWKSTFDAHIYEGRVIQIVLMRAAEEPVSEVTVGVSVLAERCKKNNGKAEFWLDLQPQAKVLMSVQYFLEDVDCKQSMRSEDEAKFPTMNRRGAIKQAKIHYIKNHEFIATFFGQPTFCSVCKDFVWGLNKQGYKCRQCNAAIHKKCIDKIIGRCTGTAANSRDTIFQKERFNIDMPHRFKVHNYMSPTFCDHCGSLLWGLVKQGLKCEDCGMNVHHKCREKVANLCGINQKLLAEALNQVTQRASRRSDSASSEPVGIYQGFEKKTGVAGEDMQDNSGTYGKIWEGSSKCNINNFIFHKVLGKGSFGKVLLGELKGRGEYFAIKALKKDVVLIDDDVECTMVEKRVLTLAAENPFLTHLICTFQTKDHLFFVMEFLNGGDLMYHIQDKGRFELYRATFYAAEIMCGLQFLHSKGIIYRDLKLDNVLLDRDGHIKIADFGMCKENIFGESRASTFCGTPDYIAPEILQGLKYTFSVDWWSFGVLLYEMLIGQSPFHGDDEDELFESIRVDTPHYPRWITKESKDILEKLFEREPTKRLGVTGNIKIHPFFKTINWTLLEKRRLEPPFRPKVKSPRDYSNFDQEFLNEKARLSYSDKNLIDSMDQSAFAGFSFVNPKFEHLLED
Sequence of PKC theta kinase (Q04759 whole entry): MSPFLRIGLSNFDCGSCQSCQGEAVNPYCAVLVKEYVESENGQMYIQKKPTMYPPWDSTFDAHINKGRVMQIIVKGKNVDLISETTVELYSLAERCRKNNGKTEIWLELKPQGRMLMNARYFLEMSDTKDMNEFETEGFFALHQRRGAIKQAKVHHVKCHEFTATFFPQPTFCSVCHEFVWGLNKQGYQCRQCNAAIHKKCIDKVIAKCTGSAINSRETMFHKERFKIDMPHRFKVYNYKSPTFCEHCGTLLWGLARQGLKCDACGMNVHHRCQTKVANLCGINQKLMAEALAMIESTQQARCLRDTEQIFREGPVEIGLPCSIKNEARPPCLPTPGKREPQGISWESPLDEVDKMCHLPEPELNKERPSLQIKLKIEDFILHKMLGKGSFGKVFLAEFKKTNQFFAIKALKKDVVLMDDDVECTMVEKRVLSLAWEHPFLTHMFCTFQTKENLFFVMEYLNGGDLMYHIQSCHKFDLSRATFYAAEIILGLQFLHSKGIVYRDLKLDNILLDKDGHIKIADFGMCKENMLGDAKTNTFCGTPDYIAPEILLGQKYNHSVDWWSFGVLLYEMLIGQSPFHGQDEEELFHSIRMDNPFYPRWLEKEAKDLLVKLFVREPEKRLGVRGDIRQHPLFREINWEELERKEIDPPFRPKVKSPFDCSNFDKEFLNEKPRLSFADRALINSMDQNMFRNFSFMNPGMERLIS

Row | SMILES | Ki (PKC delta kinase) [nM] | Ki (PKC alpha kinase) [nM] | Ki (PKC theta kinase) [nM]
1 | FC(F)(F)CC1CN(c2cccc(-c3n[nH]c4ncccc34)n2)CCN1 (stereo not drawn) [Compound 28] | < 500 | < 2800 | < 50
2 | CC(C)C[C@@H]1C[C@H](N)CN(c2ccc(F)c(-c3n[nH]c4ncccc34)n2)C1 [Compound 366] | < 2800 | > 1250 | < 50
3 | NC[C@@H]1CCN(c2ccc(F)c(-c3n[nH]c4ncccc34)n2)C1 [Compound 357] | > 1250 | > 1250 | < 500
4 | CC(C)(O)CC1CN(c2ccc(C(F)(F)F)c(-c3n[nH]c4ncccc34)n2)CCN1 (stereo not drawn) [Compound 72] | > 2000 | > 1250 | < 500
5 | CC(C)CC1CN(c2ccc(C(F)(F)F)c(-c3n[nH]c4ncccc34)n2)CCC1CN (stereo not drawn) [Compound 350] | > 1250 | > 1250 | < 50
6 | CC(=O)NCC1CCCN(c2ccc(F)c(-c3n[nH]c4ncccc34)n2)C1 (stereo not drawn) [Compound 303] | > 1250 | > 1250 | > 700
7 | CC(C)CC1(O)CN(c2ccc(F)c(-c3n[nH]c4ncccc34)n2)CCC1C#N (stereo not drawn) [Compound 400] | < 2800 | > 1250 | < 50
8 | CC(C)(C(N)C1CCCN(c2ccc(F)c(-c3n[nH]c4ncccc34)n2)C1)C(F)(F)F (stereo not drawn) [Compound 390] | > 1250 | > 1250 | < 50
9 | Clc1cccc(C2CN(c3cccc(-c4n[nH]c5ncccc45)n3)CCN2)c1 (stereo not drawn) [Compound 18] | < 2800 | < 2800 | < 50
10 | CC(C)C[C@H]1CN(c2ccc(C(F)(F)F)c(-c3n[nH]c4ncccc34)n2)CC[C@@H]1N [Compound 85] | > 2000 | > 1250 | < 500
11 | CC(C)CC1(CN)CCCN(c2ccc(F)c(-c3n[nH]c4ncccc34)n2)C1 (stereo not drawn) [Compound 351] | < 2800 | > 1250 | < 50
12 | CC(C)CC1(CO)CN(c2ccc(C(F)(F)F)c(-c3n[nH]c4ncccc34)n2)CCC1N (stereo not drawn) [Compound 411] | < 2800 | < 2800 | < 500
13 | CNC1CCN(c2ccc(F)c(-c3n[nH]c4ncccc34)n2)CC1 [Compound 369] | > 1250 | > 1250 | < 500
14 | CNC(=O)CC1CN(c2ccc(C(F)(F)F)c(-c3n[nH]c4ncccc34)n2)CCN1 (stereo not drawn) [Compound 210] | > 1250 | > 1250 | < 500
15 | CCCC1CN(c2ccc(C(F)(F)F)c(-c3n[nH]c4ncccc34)n2)CCN1 (stereo not drawn) [Compound 113] | > 1250 | > 1250 | < 50
16 | CC(C)C[C@H]1CN(c2cccc(-c3n[nH]c4ncccc34)n2)CC(F)(F)CN1 [Compound 225] | > 1250 | > 1250 | < 500
17 | CCOC(=O)N1CCN(c2ccc(F)c(-c3n[nH]c4ncccc34)n2)CC1C(C)(O)C(C)C (stereo not drawn) [Compound 418] | > 1250 | > 1250 | > 700
18 | CCC[C@H]1CN(c2ccc(F)c(-c3n[nH]c4ncccc34)n2)C[C@@H]1N [Compound 339] | > 1250 | > 1250 | < 500
19 | Cc1ccc(N2CCNCC2)nc1-c1n[nH]c2ncccc12 [Compound 3] | < 2800 | > 2800 | < 500
20 | CC(C)(F)CC1CN(c2cccc(-c3n[nH]c4ncccc34)n2)CCN1 (stereo not drawn) [Compound 71] | < 500 | > 1250 | < 50
21 | CC(C)CC1CCCN(c2ccc(C(F)(F)F)c(-c3n[nH]c4ncccc34)n2)C1 (stereo not drawn) [Compound 333] | > 1250 | > 1250 | > 700
22 | CC(C)C(O)(C1CN(c2ccc(F)c(-c3n[nH]c4ncccc34)n2)CCN1)C(F)(F)F (stereo not drawn) [Compound 207] | < 2800 | > 1250 | < 50
23 | NC1CN(c2cccc(-c3n[nH]c4ncccc34)n2)C1 [Compound 63] | > 2000 | > 1250 | < 2800
24 | OC1CCCN(c2ccc(C(F)(F)F)c(-c3n[nH]c4ncccc34)n2)C1 (stereo not drawn) [Compound 423] | > 1250 | > 1250 | > 700
25 | NC[C@@H]1CCCN1c1ccc(C(F)(F)F)c(-c2n[nH]c3ncccc23)n1 [Compound 356] | > 1250 | > 1250 | > 700
26 | FC(F)(F)c1ccc(N2CCC(Nc3ccccc3)CC2)nc1-c1n[nH]c2ncccc12 [Compound 358] | > 1250 | > 1250 | > 700
